Values after ≈ are worked out from the molar mass of the structure shown. One block for each compound: values may come before it.
Tests used:
Assay in all cases: ≥ marks a high value that may be exact or a test limit, other limits are often not marked, values filed in µg/mL are converted to µM
[1] = test system: Shewanella putrefaciens IAM 1509
[2] = test system: Escherichia coli JCM 1649
Salmonella typhimurium = test system: Salmonella typhimurium
[3] = test system: Vibrio anguillarum NCIMB 829
[4] = test system: Bacillus subtilis IAM 1026
[5] = test system: Staphylococcus aureus IAM 1011
[6] = test system: Aeromonas salmonicida NCIMB 1102
[7] = test system: Photobacterium damselae subsp. piscicida Sp 9587
[8] = test system: Vibrio parahaemolyticus Vp+1
[9] = test system: Candida albicans ATCC 36232
[10] = test system: Micrococcus luteus ATCC 9341
[11] = test system: Escherichia coli ATCC 2592
[12] = test system: Pseudomonas aeruginosa ATCC 9027
Staphylococcus aureus = test system: Staphylococcus aureus
[13] = test system: Proteus vulgaris ATCC 6380
[14] = test system: Staphylococcus aureus ATCC 6538
[15] = test system: Xanthomonas vesicatoria DSM 50861
[16] = test system: Pectobacterium carotovorum subsp. carotovorum DSM 30168
[17] = test system: Pseudomonas syringae pv. tomato DC3000
[18] = test system: Pseudomonas syringae pv. syringae DSM 10604
[19] = test system: Pseudomonas corrugata DSM 7228
[20] = test system: Clavibacter michiganensis subsp. michiganensis DSM 46294
[21] = test system: Pseudomonas aeruginosa IFO 12582
[22] = test system: Escherichia coli IFO 12734
[23] = test system: Bacillus subtilis IFO 3134
[24] = test system: Staphylococcus aureus IFO 12732
[25] = test system: Staphylococcus aureus A170
[26] = test system: Staphylococcus epidermidis
[27] = test system: Streptococcus mutans UA159
[28] = test system: Cryptococcus neoformans ATCC 52817
[29] = test system: Streptococcus mutans GS-5
Candida glabrata 65C = test system: Candida glabrata 65C
[30] = test system: Cryptococcus neoformans CN2
[31] = test system: Candida albicans ATCC 96112
[32] = test system: Saccharomyces cerevisiae S288C
[33] = test system: Streptococcus sanguinis ATCC 49295
[34] = test system: Candida glabrata ATCC 90030
[35] = test system: Streptococcus gordonii ATCC 10558
Cupriavidus necator H16 = test system: Cupriavidus necator H16
[36] = test system: Escherichia coli BL21(DE3)
Escherichia coli JM109 = test system: Escherichia coli JM109
[37] = test system: Pseudomonas putida GPp104
[38] = test system: Fusarium oxysporum f. sp. lycopersici ATCC 201829
[39] = test system: Aspergillus niger CECT 2694
[40] = test system: Penicillium expansum EPS 26
[41] = test system: Rhizopus stolonifer CECT 2344

SMILES: CC[C@H](C)[C@H](NC(=O)[C@H](CC(C)C)NC(=O)[C@H](CCCN=C(N)N)NC(=O)[C@H](CCCN=C(N)N)NC(=O)[C@@H](N)CCCCN)C(=O)N[C@@H](Cc1ccccc1)C(=O)N[C@@H](CCCN=C(N)N)C(=O)N[C@H](C(=O)N[C@@H](CC(C)C)C(=O)N[C@@H](CCCCN)C(=O)N[C@@H](CC(C)C)C(=O)N[C@@H](Cc1ccccc1)C(=O)N[C@@H](Cc1ccccc1)C(=O)N[C@@H](CCCN=C(N)N)C(=O)N[C@@H](Cc1ccccc1)C(=O)N[C@@H](CC(C)C)C(=O)N[C@H](C(=O)N[C@@H](CCCCN)C(=O)N[C@@H](CCCCN)C(=O)N[C@@H](CCCN=C(N)N)C(N)=O)C(C)C)[C@@H](C)CC [KRRLIFRILKLFFRFLVKKR]
MIC [15]: 0.933 µM (≈ 2.5 µg/mL) | MIC [16]: 3.73 µM (≈ 10 µg/mL) | MIC [17]: 3.73 µM (≈ 10 µg/mL) | MIC [18]: 3.73 µM (≈ 10 µg/mL) | MIC [19]: 1.87 µM (≈ 5 µg/mL) | MIC [20]: 0.373 µM (≈ 1 µg/mL)

SMILES: CC[C@H](C)[C@H](NC(=O)[C@H](C)NC(=O)[C@H](CC(C)C)NC(=O)[C@@H](N)CC(C)C)C(=O)N[C@H](C(=O)NCC(=O)N[C@@H](CC(N)=O)C(=O)N[C@@H](CC(C)C)C(=O)N[C@@H](CC(C)C)C(=O)N[C@@H](CCCCN)C(=O)N[C@@H](CO)C(=O)N[C@@H](CC(C)C)C(=O)N[C@@H](CC(C)C)C(=O)O)C(C)C [LLAIVGNLLKSLL]
MIC [25]: 7.32 µM (≈ 10 µg/mL) | MIC [26]: 7.32 µM (≈ 10 µg/mL)

SMILES: CC(C)C[C@H](NC(=O)[C@H](CS)NC(=O)[C@H](CCCCN)NC(=O)[C@H](Cc1ccc(O)cc1)NC(=O)[C@H](CO)NC(=O)[C@H](CCCCN)NC(=O)[C@@H](N)CCCN=C(N)N)C(=O)N[C@@H](Cc1cnc[nH]1)C(=O)N[C@@H](CCCCN)C(=O)N[C@@H](CCCN=C(N)N)C(=O)N[C@@H](CS)C(=O)N[C@@H](CCCN=C(N)N)C(=O)O [RKSYKCLHKRCR]
MIC [27]: 30.4 µM (≈ 48 µg/mL) | MIC [28]: 3.96 µM (≈ 6.25 µg/mL) | MIC [29]: ≥ 37.2 µM | MIC (Candida glabrata 65C): 3.96 µM (≈ 6.25 µg/mL) | MIC [30]: 1.98 µM (≈ 3.13 µg/mL) | MIC [31]: 3.96 µM (≈ 6.25 µg/mL) | MIC [32]: 3.96 µM (≈ 6.25 µg/mL) | MIC [33]: ≥ 74.4 µM | MIC [34]: 15.8 µM (≈ 25 µg/mL) | MIC [35]: ≥ 54.1 µM

SMILES: CC[C@H](C)[C@H](NC(=O)[C@H](Cc1ccc(O)cc1)NC(=O)[C@@H](NC(=O)[C@@H]1CCCN1C(=O)[C@H](CCCN=C(N)N)NC(=O)[C@H](CCCN=C(N)N)NC(=O)[C@@H](NC(=O)[C@@H](N)CCCN=C(N)N)C(C)C)C(C)C)C(=O)N1CCC[C@H]1C(=O)N[C@@H](CCC(N)=O)C(=O)N1CCC[C@H]1C(=O)N[C@@H](CCCN=C(N)N)C(=O)N1CCC[C@H]1C(=O)N1CCC[C@H]1C(=O)N[C@@H](Cc1cnc[nH]1)C(=O)N1CCC[C@H]1C(=O)N[C@@H](CCCN=C(N)N)C(=O)N[C@@H](CC(C)C)C(=O)O [RVRRPVYIPQPRPPHPRL]
MIC (Cupriavidus necator H16): 10 µM (≈ 22.3 µg/mL) | MIC [36]: 0.313 µM (≈ 0.699 µg/mL) | MIC (Escherichia coli JM109): 2.5 µM (≈ 5.59 µg/mL) | MIC [37]: 3.13 µM (≈ 6.99 µg/mL)

SMILES: CC[C@H](C)[C@H](NC(=O)[C@H](CCCCN)NC(=O)[C@H](CCCCN)NC(=O)[C@H](Cc1ccccc1)NC(=O)[C@H](CC(C)C)NC(=O)[C@H](CCCCN)NC(=O)[C@@H](N)Cc1c[nH]c2ccccc12)C(=O)N[C@@H](CC(C)C)C(=O)N[C@@H](CCCCN)C(=O)N[C@@H](CCCCN)C(=O)N[C@@H](CC(C)C)C(N)=O [WKLFKKILKKL]
MIC [38]: 1.73 µM (≈ 2.5 µg/mL) | MIC [39]: 22.4 µM (≈ 32.3 µg/mL) | MIC [40]: ≥ 70.7 µM | MIC [41]: ≥ 35.4 µM

Now from value to compound, other results behind:

MIC [1]: 4.01 µM (≈ 6.25 µg/mL) | MIC [2]: ≥ 32.1 µM | MIC (Salmonella typhimurium): ≥ 32.1 µM | MIC [3]: ≥ 32.1 µM | MIC [4]: 8.01 µM (≈ 12.5 µg/mL) | MIC [5]: 2.01 µM (≈ 3.13 µg/mL) | MIC [6]: 16 µM (≈ 25 µg/mL) | MIC [7]: 8.01 µM (≈ 12.5 µg/mL)
SMILES: CC[C@H](C)[C@H](NC(=O)[C@H](C)NC(=O)[C@H](Cc1cnc[nH]1)NC(=O)[C@@H](NC(=O)[C@@H](NC(=O)[C@H](Cc1cnc[nH]1)NC(=O)[C@H](Cc1cnc[nH]1)NC(=O)[C@@H](NC(=O)[C@@H](N)Cc1ccccc1)[C@@H](C)CC)[C@@H](C)CC)C(C)C)C(=O)NCC(=O)N[C@@H](CCCN=C(N)N)C(=O)N[C@@H](CC(C)C)C(=O)N[C@@H](Cc1ccccc1)C(N)=O [FIHHIVHAIGRLF]
MIC [8]: ≥ 32.1 µM

MIC [9]: 12.4 µM (≈ 25 µg/mL) | MIC [10]: 6.18 µM (≈ 12.5 µg/mL) | MIC [11]: 12.4 µM (≈ 25 µg/mL) | MIC [12]: 6.18 µM (≈ 12.5 µg/mL) | MIC (Staphylococcus aureus): 49.4 µM (≈ 100 µg/mL) | MIC [13]: ≥ 49.4 µM | MIC [14]: 12.4 µM (≈ 25 µg/mL)
SMILES: CC[C@H](C)[C@H](NC(=O)[C@H](CCCCN)NC(=O)[C@@H]1CCCN1C(=O)[C@H](CC(C)C)NC(=O)[C@H](Cc1ccccc1)NC(=O)[C@H](CC(N)=O)NC(=O)[C@H](C)NC(=O)[C@H](C)NC(=O)[C@H](CC(C)C)NC(=O)CN)C(=O)N[C@@H](Cc1ccccc1)C(=O)N[C@@H](CS)C(=O)N[C@@H](CCCCN)C(=O)N[C@H](C(=O)N[C@H](C(=O)N[C@@H](CCCN=C(N)N)C(=O)N[C@@H](CCCCN)C(=O)N[C@@H](CS)C(N)=O)[C@@H](C)O)[C@@H](C)CC [GLAANFLPKIFCKITRKC]

MIC [21]: ≥ 64 µM | MIC [22]: ≥ 64 µM | MIC [23]: ≥ 64 µM | MIC [24]: ≥ 64 µM
SMILES: CC[C@H](C)[C@H](NC(=O)[C@H](C)NC(=O)[C@@H]1CCCN1C(=O)[C@@H](NC(=O)[C@@H](NC(=O)[C@H](Cc1cnc[nH]1)NC(=O)[C@H](C)NC(=O)[C@H](C)NC(=O)[C@@H](NC(=O)[C@H](CCCCN)NC(=O)[C@H](C)NC(=O)[C@H](CC(C)C)NC(=O)[C@@H](NC(=O)CNC(=O)[C@H](Cc1ccccc1)NC(=O)[C@@H](N)CC(C)C)C(C)C)C(C)C)C(C)C)C(C)C)C(=O)N[C@@H](C)C(=O)N[C@@H](CCC(=O)O)C(=O)N[C@@H](Cc1cnc[nH]1)C(=O)N[C@@H](Cc1ccccc1)C(N)=O [LFGVLAKVAAHVVPAIAEHF]

Reference: DBAASP
